“Also recorded” adds a separate entry of the source.
Key:
[1] = system: wild-type male cynomolgus monkeys; assay: Reduction of blood C26:0 LPC in vivo in cynomolgus monkeys; set-up: species or system cynomolgus monkey; settings: 30 mg/kg PO QD, after 7 days of dosing
Procedure: (§1) A LC-MS/MS method of analyzing Lysophosphatidylcholine (LPC) in whole blood (dried blood spot card, DBS) and brain tissue samples was developed for measuring the abundance of saturated C16, C18, C20, C22, C24 and C26 LPC in DBS and brain samples. Whole blood was collected with Whatman DMPK-C DBS card at an approximate volume of 20 μL at each time point. Brain tissue was collected at the end point of the study. Samples were prepared and LC-MS/MS analysis was performed as described below.
For DBS bioanalysis, the DBS card was punched at 3 mm in diameter using a semi-automated DBS card puncher. To each punched spot 200 μL of pure methanol was added. […]
(§2) The supernatant obtained from each sample was injected into a LC-MS/MS system (Agilent Technologies, Santa Clara, Calif. and Applied Biosystems, Framingham, Mass.) for analysis. […] LPCs were detected by an AB Sciex API-6500 triple quadrupole MS with electrospray ionization in the mode of multiple reaction monitoring. Ions of Q1 were monitored at m/z of 496.6, 524.6, 552.6, 580.6, 608.6 and 636.6 for LPC 16:0, LPC 18:0, LPC 20:0, LPC 22:0, LPC 24:0 and LPC 26:0, respectively. […] C16:0 LPC levels were expressed as a concentration. […]
The vehicle used was 2% TPGS and Compound 87 doses were prepared in 2% TPGS. […] DBS cards were stored at 4° C. until they could be analyzed for VLCFAs. DBS samples were prepared and analyzed using LC-MS/MS as described above.

[2] = system: ABCD1 knockout (KO) mice; assay: Reduction of blood C26:0 LPC in vivo in ABCD1 knockout mice (DBS, LC-MS/MS); set-up: species or system mouse
Procedure: Bioanalysis of LPC in Whole Blood and Brain Tissue:
as §1
Sample Preparation for LPC Bioanalysis:
For DBS bioanalysis, the DBS card was punched at 3 mm in diameter using a semi-automated DBS card puncher. To each punched spot 200 μL of pure methanol was added. The vial was vortexed at low speed for 20 minutes and centrifuged at 4000 rpm for 20 minutes. The clear supernatant was injected onto LC-MS/MS for analysis. For brain tissue bioanalysis, brain tissue was collected in a tared homogenization tube pre-filled with metal bead and weighted. To each sample vial two parts weight of methanol was added. The sample was homogenized using Precellys-24 at 5000 rpm for 20 seconds with one cycle. A 100 mg aliquot of homogenate was used for analysis. To each sample vial 400 μL of pure methanol was added. The vial was vortexed at low speed for 20 minutes and centrifuged at 4000 rpm for 20 minutes. The clear supernatant was injected onto LC-MS/MS for analysis.
The supernatant obtained from each sample was injected into a LC-MS/MS system (Agilent Technologies, Santa Clara, Calif. and Applied Biosystems, Framingham, Mass.) for analysis. All six LPC components (C16:0, C18:0, C20:0, C22:0, C24:0 and C26:0) were chromatographically separated using a Series 1290 binary pump and a Phenomenex (Torrance, Calif.) Kinetex C18 analytical column (2.1×100 mm, 5 μm particle diameter) with a 10-min gradient. A 5% acetonitrile in water solution was used as the aqueous phase and a 40% acetonitrile/60% methanol solution in 1% 2 Mol ammonium acetate was used as the organic mobile phase for achieving the chromatographic analysis. LPCs were detected by an AB Sciex API-6500 triple quadrupole MS with electrospray ionization in the mode of multiple reaction monitoring. Ions of Q1 were monitored at m/z of 496.6, 524.6, 552.6, 580.6, 608.6 and 636.6 for LPC 16:0, LPC 18:0, LPC 20:0, LPC 22:0, LPC 24:0 and LPC 26:0, respectively. A common Q3 ion m/z of 184.2 was used for all LPC analyses. C16:0 LPC levels were expressed as a concentration. All other LPC levels were expressed relative to C16. A one-way ANOVA with Dunnett's multiple comparisons test was performed to assess differences in LPC levels among the different groups. A value of P≤0.05 was considered statistically significant. All statistical analyses were conducted using Prism Software version 7.01 (GraphPad, La Jolla, Calif.).
Dosing in ABCD1 Knockout Mice:
To determine the effect of Compound 87 on blood VLCFA levels, Compound 87 was administered to ABCD1 knockout (KO) mice, a model that reproduces the C26:0 VLCFA accumulation observed in ALD patients. Specifically, Compound 87 was administered orally (PO) QD at 1, 8, or 16 mg/kg to ABCD1 KO mice (n=5 per group). DBS were collected on day 0 (pre-dosing), and daily through 14 days of dosing. DBS cards were stored at 4° C. in sealed ziplock bags with desiccant until they could be analyzed for LPC using the sample preparation and LC-MS/MS as described above. The vehicle used was 2% D-α-Tocopherol polyethylene glycol 1000 succinate (TPGS) and Compound 87 doses were prepared in 2% TPGS. […] Interperitoneal dosing, at 2 or 20 mg/kg (data not shown) or oral (PO) dosing at 1, 8, or 16 mg/kg (FIG. 2A) yielded similar results. A dose response was observed between 1 and 8 mg/kg. […] Error bars indicate standard deviation.
Daily Oral Dosing in ABCD1 Knockout Mice: […]

[3] = system: WT mice; assay: Reduction of blood C26:0 LPC in vivo in wild-type mice; set-up: species or system mouse; settings: blood (DBS), plateau between the 2 mg/kg and 16 mg/kg doses, PO QD 28 days
Procedure: as §1
For DBS bioanalysis, the DBS card was punched at 3 mm in diameter using a semi-automated DBS card puncher. To each punched spot 200 μL of pure methanol was added. The vial was vortexed at low speed for 20 minutes and centrifuged at 4000 rpm for 20 minutes. The clear supernatant was injected onto LC-MS/MS for analysis. […]
as §2

For `O=C(Nc1ccn(-c2ccnc(F)c2)n1)C1(c2ccccc2F)CC1` [Compound 87, 1-(2-fluorophenyl)-N-[1-(2-fluoro-4-pyridyl)pyrazol-3-yl]cyclopropanecarboxamide], the “reduction in blood C26:0 LPC” value [1] was about 50%, the “Plasma C26:0 LPC levels” value ([2]; ABCD1 KO mice, 1, 8, or 16 mg/kg PO QD for 14 days) was “dropped over the first 8 days before plateauing at near WT baseline levels” and the “reduction in C24:0 and C26:0 LPC levels compared to vehicle controls” value ([2]; ABCD1 KO mice, blood (DBS), 0.5 mg/kg PO QD for 28 days) was 50%. For the same molecule, the “reduction in C26:0 LPC levels (dose response plateau)” value ([2]; ABCD1 KO mice, blood (DBS), plateau between the 4 mg/kg and 8 mg/kg doses, PO QD 28 days) was “approximately 75%”, the “time for LPC levels to return to baseline levels after compound discontinuation” value ([2]; adult female ABCD1 KO mice, 1 or 8 mg/kg PO QD for 14 days, then discontinued) was “approximately 1 week” and the “C26:0 LPC reducing effect after discontinuation of treatment” value ([2]; adult female ABCD1 KO mice, 1 or 8 mg/kg PO QD for 14 days, then discontinued, blood LPC followed another 2 weeks) was “reversible; also recorded: to about baseline level”. For the same molecule, the “C26:0 LPC/C16:0 LPC levels in the blood” value ([2]; female ABCD1 KO mice, 1 and 10 mg/kg PO QD, 3 months of dosing) was “maintained at near WT levels”, the “reduction in C26:0 LPC levels in vivo” value ([2]; female ABCD1 KO mice, blood (DBS), 1 mg/kg PO QD for 3 months) was about 65% and the “reduction in C26:0 LPC levels in vivo” value ([2]; female ABCD1 KO mice, blood (DBS), 10 mg/kg PO QD for 3 months) was about 70%. For the same molecule, the “reduction in C26:0 LPC levels (maximal effect plateau)” value [3] was about 65%.
